Values belong to the compound of their own block, whether it stands above or below them.
Test system: TPP riboswitch aptamer (wtAtRs1 + wtAtRs2 + wtAtRs3, splint-ligated) (RNA, riboswitch, amino-modified U (5-N-U) at 59 (U replaces G88 in paper numbering); amino-modified U (5-LC-N-U) at 123 (U25 in paper numbering)) AUCGAGAGGGACACGGGGAAACACCACCAUAUAUGCACCAGGGGUGCUUGAACCAGGAUAGCCUGCGAAAAGGCGGGCUAUCCGGGACCAGGCUGAGAAAGUCCCUUUGAACCUGAACAGGGUAAUGCCUGCGCAGGGAGUGUGCUAACAAGGUCACCAUCAUCCUGACUAGAGUCCUUGG
Assay: optical-trap force spectroscopy with smFRET
Conditions: 130 mM KCl, 4 mM Mg2+, 50 mM HEPES pH 7.5, 1 mM EDTA, oxygen scavengers

binding (2 mM thiamine (saturating), arms not docked): yes
Compound: Cc1ncc(C[n+]2csc(CCO)c2C)c(N)n1

binding (2 mM TMP (saturating), arms not docked): yes
Compound: Cc1ncc(C[n+]2csc(CCOP(=O)(O)O)c2C)c(N)n1

binding (5 µM, 50 µM and 2 mM TPP, weak then strong state): yes
Compound: Cc1ncc(C[n+]2csc(CCOP(=O)(O)OP(=O)(O)O)c2C)c(N)n1

Reference: publication PMC4775224 (2015)
